Laboratory results published in ChEMBL document CHEMBL1157133, “Design, synthesis, and interaction study of quinazoline-2(1H)-thione derivatives as novel potential Bcl-xL inhibitors” (J Med Chem, 2010).
Active and inactive are the calls of the source. No cut-off for these calls is given here.

Columns and labels:
PC-3 = experiment: Cytotoxicity against human PC3 cells after 48 hrs by MTT assay; type: functional, cell-based
Bcl-2-like protein 1 [1] = biological target: Bcl-2-like protein 1 (Homo sapiens, UniProt Q07817, Y101A); experiment: Binding affinity to human Bcl-XL Y101A mutant by surface plasma resonance based biosensor system
Sequence of Bcl-2-like protein 1 (Homo sapiens, UniProt Q07817, Y101A) (Q07817 whole entry Y101A): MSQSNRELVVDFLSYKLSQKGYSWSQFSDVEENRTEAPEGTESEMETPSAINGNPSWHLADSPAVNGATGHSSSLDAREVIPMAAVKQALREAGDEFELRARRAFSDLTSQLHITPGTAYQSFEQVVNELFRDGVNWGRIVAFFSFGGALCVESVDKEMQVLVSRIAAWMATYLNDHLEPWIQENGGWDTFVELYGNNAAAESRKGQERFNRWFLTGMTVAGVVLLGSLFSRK

Bcl-2-like protein 1 [2] = biological target: T1, Bcl-2-like protein 1 (Homo sapiens, UniProt Q07817); experiment: Binding affinity to human Bcl-XL by surface plasma resonance based biosensor system
T1 sequence (Q07817 whole entry): as the sequence (Q07817 whole entry Y101A) above, with A101Y counted along it

K562 [3] = experiment: Induction of apoptosis in human K562 cells assessed reduction of mitochondrial membrane potential after 24 hrs using JC1 fluorescent dye
K562 [4] = experiment: Induction of apoptosis in human K562 cells assessed as chromatin condensation; type: functional, cell-based
Bcl-2-like protein 1 [5] = biological target: Bcl-2-like protein 1 (Homo sapiens, UniProt Q07817, Y195A); experiment: Binding affinity to human Bcl-XL Y195A mutant by surface plasma resonance based biosensor system
Sequence of Bcl-2-like protein 1 (Homo sapiens, UniProt Q07817, Y195A) (Q07817 whole entry Y195A): as the sequence (Q07817 whole entry Y101A) above, with A101Y, Y195A counted along it

[6] = biological target: Induced myeloid leukemia cell differentiation protein Mcl-1 homolog (Mus musculus, UniProt P97287); experiment: Displacement of FITC-labeled BH3 peptide from GST-tagged mouse Mcl1 after 1 hr by fluorescence polarization assay
Sequence of Induced myeloid leukemia cell differentiation protein Mcl-1 homolog (P97287 whole entry): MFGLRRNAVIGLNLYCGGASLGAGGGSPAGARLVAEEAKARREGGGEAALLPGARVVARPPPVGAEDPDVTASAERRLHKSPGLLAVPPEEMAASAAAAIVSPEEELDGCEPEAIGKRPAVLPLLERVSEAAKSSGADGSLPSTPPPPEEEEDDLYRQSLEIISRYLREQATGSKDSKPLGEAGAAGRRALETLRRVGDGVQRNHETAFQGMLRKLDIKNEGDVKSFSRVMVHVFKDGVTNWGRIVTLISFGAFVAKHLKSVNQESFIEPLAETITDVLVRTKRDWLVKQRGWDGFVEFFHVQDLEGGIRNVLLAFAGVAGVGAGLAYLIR

Bcl-2-like protein 1 [7] = biological target: T1, Bcl-2-like protein 1; experiment: Inhibition of human Bcl-XL
Bcl-2-like protein 1 [8] = biological target: Bcl-2-like protein 1 (Homo sapiens, UniProt Q07817, E96A); experiment: Binding affinity to human Bcl-XL E96A mutant by surface plasma resonance based biosensor system
Sequence of Bcl-2-like protein 1 (Homo sapiens, UniProt Q07817, E96A) (Q07817 whole entry E96A): as the sequence (Q07817 whole entry Y101A) above, with E96A, A101Y counted along it

OVCAR-3 = experiment: Cytotoxicity against human OVCAR-3 cells after 48 hrs by MTT assay; conditions: OVCAR-3, 48 h
K562 [9] = experiment: Induction of apoptosis in human K562 cells assessed activation of caspase9 at 25 uM after 48 hrs by immunoblotting; type: functional, cell-based
Bcl-2-like protein 1 [10] = biological target: T1, Bcl-2-like protein 1; experiment: Displacement of FITC-labeled BH3 peptide from human Bcl-XL after 1 hr by fluorescence polarization assay
HepG2 = experiment: cells; conditions: Homo sapiens, HepG2, 48 h
Description: Cytotoxicity against human HepG2 cells after 48 hrs by MTT assay

K562 [11] = experiment: Induction of apoptosis in human K562 cells assessed as increase of reactive oxygen species level at 25 uM after 48 hrs using DCFH-DA fluorescent dye relative to control; type: functional
[12] = Cytotoxicity against human Bel7404 cells after 48 hrs by MTT assay; conditions: BEL-7404, 48 h
[13] = biological target: Apoptosis regulator Bcl-2 (Homo sapiens, UniProt P10415); experiment: Displacement of FITC labeled BH3 peptide from His-tagged human BCL2 after 1 hr by fluorescence polarization assay
Sequence of Apoptosis regulator Bcl-2 (P10415 whole entry): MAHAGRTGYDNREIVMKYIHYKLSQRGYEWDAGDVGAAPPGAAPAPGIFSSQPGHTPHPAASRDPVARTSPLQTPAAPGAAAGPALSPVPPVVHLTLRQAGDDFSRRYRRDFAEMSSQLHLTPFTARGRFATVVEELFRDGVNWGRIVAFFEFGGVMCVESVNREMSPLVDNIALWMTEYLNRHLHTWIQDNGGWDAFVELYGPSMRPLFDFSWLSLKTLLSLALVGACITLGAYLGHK

K562 [14] = experiment: cells; conditions: Homo sapiens, K562, 48 h
Description: Cytotoxicity against human K562 cells after 48 hrs by MTT assay

A2780 = experiment: cells; conditions: Homo sapiens, A2780, 48 h
Description: Cytotoxicity against human A2780 cells after 48 hrs by MTT assay

K562 [15] = experiment: Induction of apoptosis in human K562 cells assessed activation of caspase3 at 25 uM after 48 hrs by immunoblotting; type: functional, cell-based

Kd (Bcl-2-like protein 1 [1]): 6.94 µM | Kd (Bcl-2-like protein 1 [2]): 9.5 µM | Kd (Bcl-2-like protein 1 [5]): 904 µM | IC50 [6]: 6.4 µM | IC50 (Bcl-2-like protein 1 [7]): 3.4 µM | Kd (Bcl-2-like protein 1 [8]): 34.8 µM | IC50 (Bcl-2-like protein 1 [10]): 3.4 µM | EC50 (HepG2): 12.7 µM | IC50 [13]: 3.1 µM | EC50 (K562 [14]): 50.9 µM | EC50 (A2780): 4.57 µM
Compound: COc1ccccc1C1C2=C(N=c3s/c(=C\c4cccc(OCC(=O)O)c4)c(=O)n31)c1ccccc1CC2 (stereo not given)
Activity (PC-3): Dose-dependent effect | EC50 (PC-3; PC-3, 48 h): 37.6 µM | Activity (K562 [3]): Dose-dependent effect | Activity (K562 [4]): Active | EC50 (OVCAR-3): 1540 nM | Activity (K562 [9]): Active | fold change (FC) (K562 [11]): 2.7 | EC50 [12]: 7.9 µM | Activity (K562 [15]): Active
